Measured values from PubChem BioAssay (NCI).
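Each compound was tested at five concentrations against cells in 96-well plates for 48 hours. GI50 is the concentration that inhibits growth by half. The concentration for full growth arrest is given as TGI.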

Legend:
Experiment in all cases: DTP human tumour cell line panel, 48 h
HOP-62 NSCLC = system: HOP-62 NSCLC
HCT-116 colon = system: HCT-116 colon
A498 renal = system: A498 renal
NCI/ADR-RES ovarian = system: NCI/ADR-RES ovarian
NCI-H460 lung = system: NCI-H460 lung
NCI-H522 lung = system: NCI-H522 lung
MOLT-4 leukemia = system: MOLT-4 leukemia
U251 CNS = system: U251 CNS
HL-60(TB) leukemia = system: HL-60(TB) leukemia
MDA-MB-435 = system: MDA-MB-435
HT29 colon = system: HT29 colon
SNB-75 CNS = system: SNB-75 CNS
OVCAR-4 ovarian = system: OVCAR-4 ovarian
DU-145 prostate = system: DU-145 prostate
IGROV1 ovarian = system: IGROV1 ovarian
K-562 leukemia = system: K-562 leukemia
786-0 renal = system: 786-0 renal
MALME-3M melanoma = system: MALME-3M melanoma
T-47D breast = system: T-47D breast
NCI-H226 lung = system: NCI-H226 lung
M14 melanoma = system: M14 melanoma
SF-295 CNS = system: SF-295 CNS
SN12C renal = system: SN12C renal
SK-MEL-5 melanoma = system: SK-MEL-5 melanoma
KM12 colon = system: KM12 colon
SNB-19 CNS = system: SNB-19 CNS
UO-31 renal = system: UO-31 renal
CCRF-CEM leukemia = system: CCRF-CEM leukemia
OVCAR-8 ovarian = system: OVCAR-8 ovarian
OVCAR-5 ovarian = system: OVCAR-5 ovarian
MDA-MB-468 breast = system: MDA-MB-468 breast
HCC-2998 colon = system: HCC-2998 colon
ACHN renal = system: ACHN renal
HCT-15 colon = system: HCT-15 colon
HS 578T breast = system: HS 578T breast
NCI-H23 lung = system: NCI-H23 lung
RXF 393 renal = system: RXF 393 renal
UACC-62 melanoma = system: UACC-62 melanoma
A549 NSCLC = system: A549 NSCLC
MCF7 breast = system: MCF7 breast
COLO 205 colon = system: COLO 205 colon
MDA-MB-231 breast = system: MDA-MB-231 breast
PC-3 prostate = system: PC-3 prostate
RPMI-8226 leukemia = system: RPMI-8226 leukemia
SK-MEL-28 melanoma = system: SK-MEL-28 melanoma
CAKI-1 renal = system: CAKI-1 renal
SK-OV-3 ovarian = system: SK-OV-3 ovarian
SF-539 CNS = system: SF-539 CNS
SR leukemia = system: SR leukemia
SF-268 CNS = system: SF-268 CNS
UACC-257 melanoma = system: UACC-257 melanoma
BT-549 breast = system: BT-549 breast
TK-10 renal = system: TK-10 renal
OVCAR-3 ovarian = system: OVCAR-3 ovarian
EKVX NSCLC = system: EKVX NSCLC
SK-MEL-2 melanoma = system: SK-MEL-2 melanoma
LOX IMVI melanoma = system: LOX IMVI melanoma
HOP-92 NSCLC = system: HOP-92 NSCLC
SW-620 colon = system: SW-620 colon

**Q.** Which results are given for `N#Cc1ccc(C(=O)CSc2nc3c(c(Nc4ccc(S(N)(=O)=O)cc4)n2)CCC3)cc1`?
**A.** GI50 (HOP-62 NSCLC): > 22.5 µM; TGI (HOP-62 NSCLC): > 22.5 µM; GI50 (HCT-116 colon): > 22.5 µM; TGI (HCT-116 colon): > 22.5 µM; GI50 (A498 renal): > 22.5 µM; TGI (A498 renal): > 22.5 µM; GI50 (NCI/ADR-RES ovarian): > 22.5 µM; TGI (NCI/ADR-RES ovarian): > 22.5 µM; GI50 (NCI-H460 lung): > 22.5 µM; TGI (NCI-H460 lung): > 22.5 µM; GI50 (NCI-H522 lung): > 22.5 µM; TGI (NCI-H522 lung): > 22.5 µM; GI50 (MOLT-4 leukemia): > 22.5 µM; TGI (MOLT-4 leukemia): > 22.5 µM; GI50 (U251 CNS): > 22.5 µM; TGI (U251 CNS): > 22.5 µM; GI50 (HL-60(TB) leukemia): > 22.5 µM; TGI (HL-60(TB) leukemia): > 22.5 µM; GI50 (MDA-MB-435): > 22.5 µM; TGI (MDA-MB-435): > 22.5 µM; GI50 (HT29 colon): > 22.5 µM; TGI (HT29 colon): > 22.5 µM; GI50 (SNB-75 CNS): > 22.5 µM; TGI (SNB-75 CNS): > 22.5 µM; GI50 (OVCAR-4 ovarian): > 22.5 µM; TGI (OVCAR-4 ovarian): > 22.5 µM; GI50 (DU-145 prostate): > 22.5 µM; TGI (DU-145 prostate): > 22.5 µM; GI50 (IGROV1 ovarian): > 22.5 µM; TGI (IGROV1 ovarian): > 22.5 µM; GI50 (K-562 leukemia): > 22.5 µM; TGI (K-562 leukemia): > 22.5 µM; GI50 (786-0 renal): > 22.5 µM; TGI (786-0 renal): > 22.5 µM; GI50 (MALME-3M melanoma): > 22.5 µM; TGI (MALME-3M melanoma): > 22.5 µM; GI50 (T-47D breast): > 22.5 µM; TGI (T-47D breast): > 22.5 µM; GI50 (NCI-H226 lung): > 22.5 µM; TGI (NCI-H226 lung): > 22.5 µM; GI50 (M14 melanoma): > 22.5 µM; TGI (M14 melanoma): > 22.5 µM; GI50 (SF-295 CNS): > 22.5 µM; TGI (SF-295 CNS): > 22.5 µM; GI50 (SN12C renal): > 22.5 µM; TGI (SN12C renal): > 22.5 µM; GI50 (SK-MEL-5 melanoma): > 22.5 µM; TGI (SK-MEL-5 melanoma): > 22.5 µM; GI50 (KM12 colon): > 22.5 µM; TGI (KM12 colon): > 22.5 µM; GI50 (SNB-19 CNS): > 22.5 µM; TGI (SNB-19 CNS): > 22.5 µM; GI50 (UO-31 renal): > 22.5 µM; TGI (UO-31 renal): > 22.5 µM; GI50 (CCRF-CEM leukemia): > 22.5 µM; TGI (CCRF-CEM leukemia): > 22.5 µM; GI50 (OVCAR-8 ovarian): > 22.5 µM; TGI (OVCAR-8 ovarian): > 22.5 µM; GI50 (OVCAR-5 ovarian): > 22.5 µM; TGI (OVCAR-5 ovarian): > 22.5 µM; GI50 (MDA-MB-468 breast): > 22.5 µM; TGI (MDA-MB-468 breast): > 22.5 µM; GI50 (HCC-2998 colon): > 22.5 µM; TGI (HCC-2998 colon): > 22.5 µM; GI50 (ACHN renal): > 22.5 µM; TGI (ACHN renal): > 22.5 µM; GI50 (HCT-15 colon): > 22.5 µM; TGI (HCT-15 colon): > 22.5 µM; GI50 (HS 578T breast): > 22.5 µM; TGI (HS 578T breast): > 22.5 µM; GI50 (NCI-H23 lung): > 22.5 µM; TGI (NCI-H23 lung): > 22.5 µM; GI50 (RXF 393 renal): > 22.5 µM; TGI (RXF 393 renal): > 22.5 µM; GI50 (UACC-62 melanoma): > 22.5 µM; TGI (UACC-62 melanoma): > 22.5 µM; GI50 (A549 NSCLC): > 22.5 µM; TGI (A549 NSCLC): > 22.5 µM; GI50 (MCF7 breast): > 22.5 µM; TGI (MCF7 breast): > 22.5 µM; GI50 (COLO 205 colon): > 22.5 µM; TGI (COLO 205 colon): > 22.5 µM; GI50 (MDA-MB-231 breast): > 22.5 µM; TGI (MDA-MB-231 breast): > 22.5 µM; GI50 (PC-3 prostate): > 22.5 µM; TGI (PC-3 prostate): > 22.5 µM; GI50 (RPMI-8226 leukemia): > 22.5 µM; TGI (RPMI-8226 leukemia): > 22.5 µM; GI50 (SK-MEL-28 melanoma): > 22.5 µM; TGI (SK-MEL-28 melanoma): > 22.5 µM; GI50 (CAKI-1 renal): > 22.5 µM; TGI (CAKI-1 renal): > 22.5 µM; GI50 (SK-OV-3 ovarian): > 22.5 µM; TGI (SK-OV-3 ovarian): > 22.5 µM; GI50 (SF-539 CNS): > 22.5 µM; TGI (SF-539 CNS): > 22.5 µM; GI50 (SR leukemia): > 22.5 µM; TGI (SR leukemia): > 22.5 µM; GI50 (SF-268 CNS): > 22.5 µM; TGI (SF-268 CNS): > 22.5 µM; GI50 (UACC-257 melanoma): > 22.5 µM; TGI (UACC-257 melanoma): > 22.5 µM; GI50 (BT-549 breast): > 22.5 µM; TGI (BT-549 breast): > 22.5 µM; GI50 (TK-10 renal): > 22.5 µM; TGI (TK-10 renal): > 22.5 µM; GI50 (OVCAR-3 ovarian): > 22.5 µM; TGI (OVCAR-3 ovarian): > 22.5 µM; GI50 (EKVX NSCLC): > 22.5 µM; TGI (EKVX NSCLC): > 22.5 µM; GI50 (SK-MEL-2 melanoma): > 22.5 µM; TGI (SK-MEL-2 melanoma): > 22.5 µM; GI50 (LOX IMVI melanoma): > 22.5 µM; TGI (LOX IMVI melanoma): > 22.5 µM; GI50 (HOP-92 NSCLC): > 22.5 µM; TGI (HOP-92 NSCLC): > 22.5 µM; GI50 (SW-620 colon): > 22.5 µM; TGI (SW-620 colon): > 22.5 µM
